Structures can show the parent of a compound that is named as a salt.

The first experiment deals with T1, SMO (Mus musculus, UniProt P56726).
T1 construct: endogenous in cells; host or cells: C3H10T1/2 (ATCC #CCL-226)
T1 sequence (P56726 33-793): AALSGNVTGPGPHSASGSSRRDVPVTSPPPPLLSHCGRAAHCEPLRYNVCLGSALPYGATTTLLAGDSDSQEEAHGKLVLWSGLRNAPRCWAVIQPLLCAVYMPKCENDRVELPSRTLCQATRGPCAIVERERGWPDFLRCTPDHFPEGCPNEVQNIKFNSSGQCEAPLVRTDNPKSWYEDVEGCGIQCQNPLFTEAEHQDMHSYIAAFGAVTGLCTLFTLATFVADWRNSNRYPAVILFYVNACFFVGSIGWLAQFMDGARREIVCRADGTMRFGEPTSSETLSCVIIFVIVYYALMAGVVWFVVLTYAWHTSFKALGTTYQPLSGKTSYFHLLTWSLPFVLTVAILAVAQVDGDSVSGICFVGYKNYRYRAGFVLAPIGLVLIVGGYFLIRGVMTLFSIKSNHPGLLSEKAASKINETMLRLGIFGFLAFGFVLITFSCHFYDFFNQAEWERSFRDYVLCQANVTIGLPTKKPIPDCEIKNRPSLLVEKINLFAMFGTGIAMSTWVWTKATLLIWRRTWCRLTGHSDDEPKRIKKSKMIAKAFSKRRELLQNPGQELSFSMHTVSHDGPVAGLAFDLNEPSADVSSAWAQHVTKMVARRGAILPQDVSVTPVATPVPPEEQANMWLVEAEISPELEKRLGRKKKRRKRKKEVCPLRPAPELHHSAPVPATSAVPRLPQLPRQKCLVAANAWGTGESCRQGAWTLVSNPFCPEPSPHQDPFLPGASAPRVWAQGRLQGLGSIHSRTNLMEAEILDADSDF
The experiment can be described thus: Smoothened (SMO)/Sonic Hedgehog (SHh) Transient Transcriptional Activation Assay (Gli-luciferase reporter in C3H10T1/2 cells). It is filed as cell-based, murine. The settings on record: 2 uM test compound, SHh 250 ng/ml, 20 hrs. An outline of the steps: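 Luminescence (Dual-Glo) measured after 20 h co-exposure at 37 °C to 250 ng/ml human SHh and compound at 2 uM down to 2 nM final. Cells were C3H10T1/2 carrying a transfected murine 10× Gli response-element luciferase construct with pEGFP, starved 20 h in 0.5% calf serum beforehand.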
(In general: A reporter such as luciferase makes a cellular process visible.)
On to `COc1cc(OC)cc(C(=O)NC2CCCC(c3nc4cc(C(=O)N(C)C)ccc4[nH]3)C2)c1` (single isomer, unassigned) [Example 8, 2-(3-(3,5-dimethoxybenzamido)cyclohexyl)-N,N-dimethyl-1H-benzo[d]imidazole-5-carboxamides (cis- and trans-isomers)], for which the “SMO % inhibition at 2 uM” value was 68%. Take “N-(3-(5-(Aminomethyl)-1-methyl-1H-benzo[d]imidazol-2-yl)cyclohexyl)-3,5-dimethoxybenzamide and N-(3-(6-(aminomethyl)-1-methyl-1H-benzo[d]imidazol-2-yl)cyclohexyl)-3,5-dimethoxybenzamide [Example 23]”: the “SMO % inhibition at 2 uM” value is 104%. For the molecule “N-(3-(1,5-Dimethyl-1H-benzo[d]imidazol-2-yl)cyclohexyl]-3,5-dimethoxybenzamide and N-(3-(1,6-dimethyl-1H-benzo[d]imidazol-2-yl)cyclohexyl]-3,5-dimethoxybenzamide [Example 22]”, the “SMO % inhibition at 2 uM” value is 98%.

Staying with this experiment, now noted: C3H 10T1/2, 2 uM test compound, SHh 250 ng/ml, 20 hrs, read-out: SMO % inhibition at 2 uM.
In general, inhibition refers to the drop in the measured response relative to a control, in per cent. For the molecule `COc1cc(OC)cc(C(=O)NC2CCCC(c3nc4ccc(C)cc4n3C)C2)c1` (stereo not drawn) [Example 26, N-(3-(1,6-Dimethyl-1H-benzo[d]imidazol-2-yl)cyclohexyl]-3,5-dimethoxybenzamide], the inhibition at 2 µM was found to be 113%. The same measure, in the same setting: with `COc1cc(OC)cc(C(=O)NC2CCCC(c3nc4ccc(C(F)(F)F)cc4[nH]3)C2)c1` (stereo not drawn) [Example 24, 3,5-Dimethoxy-N-(3-(6-(trifluoromethyl)-1H-benzo[d]imidazol-2-yl]cyclohexyl)benzamide] the figure was 105%. Still for that read-out and setting: with `O=C(NC1CCCC(c2nc3ccccc3[nH]2)C1)c1ccc2c(c1)OCCO2` (stereo not drawn) [Example 1, N-(3-(1H-benzo[d]midazol-2-yl)cyclohexyl)-2,3-dihydrobenzo[b][1,4]dioxine-6-carboxamide] the figure was 107%; with `COCCNc1cc(C(=O)N[C@@H]2CCC[C@H](c3nc4ccccc4[nH]3)C2)ccn1` [Example 42, N-((1R,3S)-3-(1H-Benzo[d]imidazol-2-yl)cyclohexyl)-2-(2-methoxyethylamino)isonicotinamide], 87%.

Staying with this experiment, now noted: C3H 10T1/2, 2 μM test compound, SHh 250 ng/ml, 20 hrs, read-out: SMO CELL % INHIBITION @ 2 μM.
Consider `N#Cc1cccc(NC(=O)N[C@@H]2CCC[C@H](c3nc4ccccc4[nH]3)C2)c1` [Example 231, 1-[(1R,3S)-3-(1H-benzimidazol-2-yl)cyclohexyl] 3-(3-cyanophenyl)-urea], for which the inhibition at 2 µM stood at 103%. Same read-out and setting: with `Cc1cc(C(=O)N[C@@H]2CCC[C@H](c3nc4ccccc4[nH]3)C2)n(C)n1` [Example 177, N-[(1R,3S)-3-(1H-benzimidazol-2-yl)cyclohexyl]-1,3-dimethyl-1H-pyrazole-5-carboxamide HCl] the figure was 73%. On the same count and under the same terms, the value for `O=C(NC1CCCC(c2nc3ccccc3[nH]2)C1)c1ccco1` (stereo not drawn) [Example 56, N-[3-(1H-benzimidazol-2-yl)cyclohexyl]-2-furamide HCl] was 51%; that for `O=C(Cn1nc2ccccc2n1)NC1CCCC(c2nc3ccccc3[nH]2)C1` (stereo not drawn) [Example 92, N-[3-(1H-benzimidazol-2-yl)cyclohexyl]-2-(2H-1,2,3-benzotriazol-2-yl)acetamide triflouroacetate] was 90%. Same read-out and setting: with `O=C(NC1CCCC(c2nc3ccccc3[nH]2)C1)c1ccc2snnc2c1` (stereo not drawn) [Example 161, N-[3-(1H-benzimidazol-2-yl)cyclohexyl]-1,2,3-benzothiadiazole-5-carboxamide triflouroacetate] the figure was 54%. With `O=C(N[C@@H]1CCC[C@H](c2nc3ccccc3[nH]2)C1)c1ccc2c(c1)CNCC2` [Example 308, N-[(1R,3S)-3-(1H-benzimidazol-2-yl)cyclohexyl]-1,2,3,4-tetrahydroiso-quinoline-7-carboxamide HCl], the inhibition at 2 µM was 96.2%. The same measure, in the same setting: with `O=C(N[C@H]1CCC[C@@H](c2nc3cc(C(F)(F)F)ccc3[nH]2)C1)c1ccc2c(c1)OCCO2` [Example 152, N-{(1S,3R)-3-[5-(trifluoromethyl)-1H-benzimidazol-2-yl]cyclohexyl}-2,3-dihydro-1,4-benzodioxine-6-carboxamide HCl] the figure was 80%; with `O=C(N[C@@H]1CCC[C@H](c2nc3ccccc3[nH]2)C1)c1ccc2scnc2c1` [Example 216, N-[(1R,3S)-3-(1H-benzimidazol-2-yl)cyclohexyl]-1,3-benzothiazole-5-carboxamide triflouroacetate], 86%; with `O=C(NC1CCCC(c2nc3ccccc3[nH]2)C1)c1c[nH]c(=O)[nH]c1=O` (stereo not drawn) [Example 108, N-[3-(1H-benzimidazol-2-yl)cyclohexyl]-2,4-dioxo-1,2,3,4-tetrahydropyr-imidine-5-carboxamide triflouroacetate], 116%. On to `O=C(N[C@@H]1CCC[C@H](c2nc3cc(C(F)(F)F)ccc3[nH]2)C1)c1ccc2c(c1)OCCO2` [Example 151, N-{(1R,3S)-3-[5-(trifluoromethyl)-1H-benzimidazol-2-yl]cyclohexyl}-2,3-dihydro-1,4-benzodioxine-6-carboxamide HCl], for which the inhibition at 2 µM was 106%. Take `O=C(N[C@@H]1CCC[C@H](c2nc3cc(C(F)(F)F)ccc3[nH]2)C1)c1ccc2c(c1)CCN(CC1CC1)C2` [Example 295]: the inhibition at 2 µM is 105%.

As to `O=C(N[C@@H]1CCC[C@H](c2nc3ccccc3[nH]2)C1)[C@@H]1COc2ccccc2O1` [Example 185, (2S)-N-[(1R,3S)-3-(1H-benzimidazol-2-yl)cyclohexyl]-2,3-dihydro-1,4-benzodioxine-2-carboxamide triflouroacetate], the inhibition at 2 µM came out at 81%. Turning to `O=C(N[C@@H]1CCC[C@H](c2nc3ccccc3[nH]2)C1)c1ccc2nsnc2c1` [Example 206, N-[(1R,3S)-3-(1H-benzimidazol-2-yl)cyclohexyl]-2,1,3-benzothiadiazole-5-carboxamide triflouroacetate], the inhibition at 2 µM is 56%. The same measure, in the same setting: the value for `N#Cc1ccc(NC(=O)NC23CCCC(c4nc5cc(Cl)ccc5[nH]4)(C2)C3)cc1` [Example 270, 1-[5-(5-chloro-1H-benzimidazol-2-yl)bicyclo[3.1.1]hept-1-yl]-3-(4-cyanophenyl) urea] was 107%. On to `COc1ccc2cc(C(=O)N[C@H]3CCC[C@H](c4nc5ccccc5[nH]4)C3)n(C)c2c1` [Example 248, N-(3-(1H-benzo[d]imidaz-ol-2-yl)cyclohexyl)-6-methoxy-1-methyl-1H-indole-2-carboxamide HCl], for which the inhibition at 2 µM stood at 74%. The same measure, in the same setting: with `O=C(N[C@@H]1CCC[C@H](c2nc3ccccc3[nH]2)C1)c1nc2ccccc2[nH]1` [Example 176, N-[(1R,3S)-3-(1H-benzimidazol-2-yl)cyclohexyl]-1H-benzimidazole-2-carboxamide HCl] the figure was 57%; with `Cc1cc2c(cc1C(=O)NC13CCCC(c4nc5cc(C(F)(F)F)ccc5[nH]4)(C1)C3)OCCO2` [Example 306, 7-methyl-N-{5-[5-(trifluoromethyl)-1H-benzimidazol-2-yl]bicyclo[3.1.1]hept-1-yl}-2,3-dihydro-1,4-benzodioxine-6-carboxamide], 110%. Consider `COc1cc(OC)cc(C(=O)N[C@@H]2CCC[C@H](c3nc4ccccc4[nH]3)C2)c1` [Example 166, N-[(1R,3S)-3-(1H-benzimidazol-2-yl)cyclohexyl]-3,5-dimethoxybenz-amide HCl], for which the inhibition at 2 µM is 109%. The same measure, in the same setting: with `N#Cc1ccc2nc([C@H]3CCC[C@@H](NC(=O)c4ccc5c(c4)OCCO5)C3)[nH]c2c1` [Example 172, N-[(1R,3S)-3-(6-cyano-1H-benzimidazol-2-yl)cyclohexyl]-2,3-dihydro-1,4-benzodioxine-6-carboxamide HCl] the figure was 90%; with `CN1C(=O)COc2ccc(C(=O)N[C@@H]3CCC[C@H](c4nc5cc(Cl)ccc5[nH]4)C3)cc21` [Example 301, N-[(1R,3S)-3-(5-chloro-1H-benzimidazol-2-yl)cyclohexyl]-4-methyl-3-oxo-3,4-dihydro-2H-1,4-benzoxazine-6-carboxamide (+)-tartrate], 108%; with `COc1cc(OC)cc(C(=O)NC2CCCC(c3nc4ccc(OC)cc4[nH]3)C2)c1` (stereo not drawn) [Example 69, 3,5-dimethoxy-N-[3-(6-methoxy-1H-benzimidazol-2-yl)cyclohexyl] benzamide], 105%. Regarding `O=C(N[C@@H]1CCC[C@H](c2nc3ccccc3n2CCO)C1)c1ccc2c(c1)OCCO2` (stereo in doubt) [Example 71, N-{3-[1-(2-hydroxyethyl)-1H-benzimidazol-2-yl]cyclohexyl}-2,3-dihydro-1,4-benzodioxine-6-carboxamide], the inhibition at 2 µM was 98%. On to `COc1cc(OC)cc(C(=O)NC2CCCC(c3nc4ccc(F)cc4[nH]3)C2)c1` (stereo not drawn) [Example 70, N-[3-(6-fluoro-1H-benzimidazol-2-yl)cyclohexyl]-3,5-dimethoxybenz-amide], for which the inhibition at 2 µM stood at 83%.

In the case of `Cc1ccc2nc([C@H]3CCC[C@@H](NC(=O)c4ccc5c(c4)OCCO5)C3)[nH]c2c1` [Example 168, N-[(1R,3S)-3-(6-methyl-1H-benzimidazol-2-yl)cyclohexyl]-2,3-dihydro-1,4-benzodioxine-6-carboxamide HCl], the inhibition at 2 µM was 106%.

Consider `O=C(N[C@@H]1CCC[C@H](c2nc3ccccc3[nH]2)C1)c1ccc2c(n1)OCCO2` [Example 242, N-((1R,3S)-3-(1H-benzo[d]imidaz-ol-2-yl)cyclohexyl)-2,3-dihydro-[1,4]dioxino[2,3-b]pyridine-6-carboxamide], for which the inhibition at 2 µM worked out at 86%.

`O=C(NCCCCl)N[C@@H]1CCC[C@H](c2nc3ccccc3[nH]2)C1` [Example 225, 1-((1R,3S)-3-(1H-benzo[d]imidaz-ol-2-yl)cyclohexyl)-3-(3-chloropropyl)-urea]: the inhibition at 2 µM came to 70%.

(Values after US20100029615A1, “BENZIMIDAZOLE DERIVATIVES” (priority 2006, published 2010).)
